Values after ≈ are worked out from the molar mass of the structure shown. Where two headings read alike, the source gives them in different places.

This is an account of results in US5399691A, “Substituted benzoylurea derivatives or their salts” (Ishihara Sangyo Kaisha Ltd., priority 1991, dated 1995).

The subject of one series is P-388 leukemia. The series is described as follows: Antitumor activity against P-388 leukemia, increase life span (Test Example 1). The following applies: Mus musculus, P388, intravenous, days 1, 5 and 9. Format: in vivo, BDF1 mouse (murine). The source says: The compounds of the present invention are effective against experimental murine tumors such as P-388 leukemia, L-1210 leukemia, B-16 melanoma, M-5076 sarcoma, Colon 38, Colon 26 and Lewis lung carcinoma. On the other hand, certain in vivo test systems and protocols have been developed by National Cancer Institute for testing compounds to determine the effectiveness of test compounds as antineoplastic agents. These have been reported in "Cancer Chemotherapy Reports", Part III, Vol. 3, No. 2 (1972) written by Deran, Greenberg, MacDonald, Schumacher and Abott. P-388 leukemia is the most standard experimental murine tumor, and it is known that many of drugs effective against human tumor are also effective against this leukemia. Generally, the effectiveness of a drug for these experimental murine tumors is evaluated by the extended median survival time of a test mouse group to which a test drug is administered on the basis of the median survival time of a control mouse group to which no drug is administered. If the extended median survival time is at least 25-30% longer, the administered drug is determined to be effective.
1×10^6 of P-388 leukemia cells per mouse were intraperitoneally transplanted into BDF1 mouse. Each formulation was intraperitoneally or intravenously administered on the 1st, 5th and 9th days after the transplantation.
The increase life span of each group was determined by comparing the median survival time (days) of a test group to which a test drug is administered and the median survival time (days) of a control group to which physiological saline was administered at the same part as in the case of the test group. Among the tested drug formulations, the compounds of the present invention were formulated in accordance with the below-mentioned Formulation Example 1, and the comparative compounds as shown in Table 8 were formulated in accordance with the below-mentioned Formulation Example 2.
(Note) * Increase life span is calculated by the following equation:
Increase life span % (ILS)=(a/b×100)-100 a: Median survival days of test group of drug administration b: Median survival days of control group of physiological saline administration 0.125 part by weight of the above mentioned Compound No. 1 was dissolved in 5 parts by weight of N,N-dimethylacetamide and 5 parts by weight of polyoxyethylene sorbitan monooleate, and 90 parts by weight of physiological saline was added thereto to form a solution formulation in an agate mortar.
0.125 part by weight of Comparative Compound No. 1 was dissolved in 5 parts by weight of N,N-dimethylacetamide and 5 parts by weight of polyoxyethylene sorbitan monooleate, and 90 parts by weight of physiological saline was added thereto to form a suspension formulation in an agate mortar.

A short description of series [1]: Solubility in water-soluble solvent by HPLC (Test Example 2). Format: physicochemical. The protocol:
About 2 mg of each of the compounds of the present invention shown in the following Table 7 was accurately weighed, and was completely dissolved in 2 ml of N,N-dimethylacetamide. The content was then transferred into a 10 ml-measuring flask, and its volume was made constant with acetonitrile. 3 ml of the resultant solution was placed in a 50 ml-measuring flask, and its volume was adjusted constant with acetonitrile to prepare a standard solution. Next, about 2 mg of each of the compounds of the present invention was weighed, and was placed in an agate mortar. Thereafter, 1.5 ml of a test liquid (water-soluble solvent) was added thereto, and the content was mixed for 5 minutes. A suspension thus obtained, was transferred into a 1.5 ml-microtube, and was centrifuged at 15,000 r.p.m. for 10 minutes. The supernatant fluid was placed in a 1 ml-microtube, and was centrifuged again under the same conditions. 0.1 ml of the supernatant fluid thus obtained was diluted with 0.9 ml of acetonitrile to prepare a measuring liquid. The above standard solution and the measuring liquid were analyzed by high pressure liquid chromatography (HPLC), and their solubilities were measured by absolute calibration curve method.
Column: Nucleosil 5 C18, diameter=4.6 mm, length=250 mm
Mobile phase: acetonitrile/water/acetic acid=60/40/0.1
Detection: UV 265 nm, Column temperature: 40° C.,
Sensitivity: 0.005 AUFS or 0.16 AUFS,

Another series is described as follows: Acute toxicity. Format: in vivo. The following applies: mouse, in vivo; BDF1 mice, intravenous, Formulation Example 1; read-out: acute toxicity value (LD 50). The procedure: (§1) None of BDF1 mice were dead by intravenously administering each formulation of Compound Nos. 1 to 9, 20, 49 and 53 of the present invention prepared in accordance with Formulation Example 1 in an amount of 25 mg/kg mouse (on the basis of compound).
(§2) 0.125 part by weight of the above mentioned Compound No. 1 was dissolved in 5 parts by weight of N,N-dimethylacetamide and 5 parts by weight of polyoxyethylene sorbitan monooleate, and 90 parts by weight of physiological saline was added thereto to form a solution formulation in an agate mortar.

The subject of another series is BDF1 mice. Description: Acute toxicity. The following applies: intravenous, 25 mg/kg mouse, Formulation Example 1. Format: in vivo. The procedure:
as §1, §2

Consider `CNCC(=O)Nc1ccccc1C(=O)NC(=O)Nc1ccc(Oc2ncc(Br)cn2)c(C)c1` [compound 53, N-[4-(5-bromo-2-pyrimidinyloxy)-3-methylphenyl]-N'-(2-sarcosylamino)benzoylurea], for which the ILS at 10 mg/kg in the series on P-388 leukemia (10 mg/kg (footnote d)) was over 30%. The molecule further showed an increase in life span (ILS) at 20 mg/kg with P-388 leukemia (20 mg/kg (footnote c)) of over 50%. The solubility in series [1] (distilled water, water, read-out: Solubility, test solution A) is 5000 µg/mL (≈ 9.74 mM); in series [1] (physiological saline, read-out: Solubility, test solution B) it was 120 µg/mL (≈ 0.234 mM). In addition, the LD50 in “Acute toxicity” was at least 25 mg/kg. Also, the BDF1 mice dead entry with BDF1 mice is recorded as “None”.

For orientation: ILS means the gain in survival time of treated over control animals, in per cent. A word on the solubility: it is the dissolved amount per volume that the medium holds.
